In patent US12371428B2 (Exelixis, Inc., priority 2019, dated 2025) one finds IC50 data, which are given here for eight compounds.

Structures can show the parent of a compound that is named as a salt. Where two headings read alike, the source gives them in different places.

In assay [1] the target is Human MET (residues 956-1390) (Homo sapiens (Human), UniProt P08581). As to the kind of experiment: Human Met kinase assay, HTRF KinEase (Example D-2). The class given is biochemical. To be noted: read-out: c-Met IC50. In short, it runs like this: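 MET kinase domain (956-1390), 0.1 ng/well, in buffer with 5 mM MgCl2, 1 mM DTT and 1 mM MnCl2, phosphorylated a biotinylated peptide at ATP Km for 40 min at RT; 10 concentrations, 3% DMSO final. EDTA-stopped HTRF read after 60 min; IC50 from a 4-parameter logistic fit.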
Human MET (residues 956-1390), sequence (P08581 956-1390): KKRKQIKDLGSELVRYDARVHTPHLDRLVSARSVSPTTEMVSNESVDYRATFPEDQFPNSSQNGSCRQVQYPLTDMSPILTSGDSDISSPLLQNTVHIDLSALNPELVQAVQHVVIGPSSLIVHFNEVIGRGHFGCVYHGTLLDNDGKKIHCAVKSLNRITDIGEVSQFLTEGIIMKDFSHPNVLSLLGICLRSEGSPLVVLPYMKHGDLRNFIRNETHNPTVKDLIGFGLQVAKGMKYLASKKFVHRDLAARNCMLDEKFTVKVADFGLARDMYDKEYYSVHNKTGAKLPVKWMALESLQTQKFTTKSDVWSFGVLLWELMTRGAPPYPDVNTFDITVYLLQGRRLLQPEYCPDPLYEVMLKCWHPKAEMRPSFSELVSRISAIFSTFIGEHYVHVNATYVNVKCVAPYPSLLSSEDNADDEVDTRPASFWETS
A general note: In TR-FRET formats the signal depends on donor and acceptor labels being close together.

The target in assay [2] is Mer (phospho-Mer, MERTK-transfected 293A cells) (Homo sapiens (Human), UniProt Q12866). Nature of the assay: Mer autophosphorylation ELISA in transient transfected 293A cells (Example H). Format: cell-based. To be noted: cellular activity; Mer autophosphorylation ELISA in transient transfected 293A cells. Put shortly:
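IC50 from phospho-Mer ELISA of MERTK-transfected 293A cell lysates after 1 h treatment with serially diluted compound in serum-free medium.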
For orientation: In an ELISA, binding on a coated surface is turned into a signal by an enzyme label.

The target of assay [3] is Human MER (residues 528-999) (Homo sapiens (Human), UniProt Q12866). As to the kind of experiment: Human Mer kinase assay, HTRF KinEase (Example C-2). The class given is biochemical. Put shortly: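 Recombinant MER 528-999 (1 ng/well) in buffer with 5 mM MgCl2 and 1 mM DTT was reacted with biotinylated peptide and ATP at Km (40 μM) for 60 min at room temperature. EDTA stop with SA-XL665 and Eu3+ TK antibody, then 665/620 nm HTRF read; IC50 from 4-parameter fit.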
Human MER (residues 528-999), sequence (Q12866 528-999): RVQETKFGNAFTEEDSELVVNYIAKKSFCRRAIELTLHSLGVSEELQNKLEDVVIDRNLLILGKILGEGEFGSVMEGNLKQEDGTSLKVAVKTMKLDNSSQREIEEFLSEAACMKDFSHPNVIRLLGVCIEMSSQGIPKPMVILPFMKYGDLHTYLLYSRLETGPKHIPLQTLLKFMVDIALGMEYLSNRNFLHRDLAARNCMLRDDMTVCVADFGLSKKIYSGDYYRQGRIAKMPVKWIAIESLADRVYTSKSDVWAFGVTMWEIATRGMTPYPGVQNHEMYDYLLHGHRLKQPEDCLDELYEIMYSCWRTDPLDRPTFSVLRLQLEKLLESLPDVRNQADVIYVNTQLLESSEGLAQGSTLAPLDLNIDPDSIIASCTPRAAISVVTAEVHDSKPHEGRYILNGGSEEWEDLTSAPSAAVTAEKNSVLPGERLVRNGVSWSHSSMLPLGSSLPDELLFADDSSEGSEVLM

In assay [4] the target is Human KDR (residues 790-1356) (Homo sapiens (Human), UniProt P35968). As to the kind of experiment: Human KDR kinase assay, HTRF KinEase (Example B-2). Format: biochemical. Put shortly: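 Ten compound concentrations (3% DMSO final) were pre-plated, then KDR (790-1356) with biotinylated peptide in Mg/Mn/DTT buffer was added; ATP at Km (4.0 μM) started a 40 min room-temperature reaction. Detection used Eu-TK antibody and SA-XL665 in EDTA buffer; activity normalized to DMSO and reference inhibitor, IC50 by logistic fit.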
Human KDR (residues 790-1356), sequence (P35968 790-1356): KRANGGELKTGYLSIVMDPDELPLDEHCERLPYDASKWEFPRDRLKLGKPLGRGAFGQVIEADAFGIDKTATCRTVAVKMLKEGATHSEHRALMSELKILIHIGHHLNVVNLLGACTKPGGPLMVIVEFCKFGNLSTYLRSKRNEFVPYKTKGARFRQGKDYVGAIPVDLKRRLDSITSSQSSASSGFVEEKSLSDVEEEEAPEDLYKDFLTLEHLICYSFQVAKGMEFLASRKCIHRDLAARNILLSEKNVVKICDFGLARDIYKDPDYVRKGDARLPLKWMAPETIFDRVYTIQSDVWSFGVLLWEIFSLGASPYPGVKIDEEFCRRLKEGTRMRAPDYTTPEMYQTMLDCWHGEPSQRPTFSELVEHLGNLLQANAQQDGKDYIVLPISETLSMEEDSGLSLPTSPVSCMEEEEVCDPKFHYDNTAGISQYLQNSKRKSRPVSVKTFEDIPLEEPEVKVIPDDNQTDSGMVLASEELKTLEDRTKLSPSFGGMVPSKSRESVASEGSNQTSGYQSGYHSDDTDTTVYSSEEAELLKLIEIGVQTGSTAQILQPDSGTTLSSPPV

The mark [5] stands for this setting: protocol of Example D-2 (other compounds).
Setting [6] is: protocol of Example C-2 (other compounds).
Where [7] appears, read: protocol of Example B-2 (other compounds).

Mer (phospho-Mer, MERTK-transfected 293A cells), sequence (Q12866 21-999): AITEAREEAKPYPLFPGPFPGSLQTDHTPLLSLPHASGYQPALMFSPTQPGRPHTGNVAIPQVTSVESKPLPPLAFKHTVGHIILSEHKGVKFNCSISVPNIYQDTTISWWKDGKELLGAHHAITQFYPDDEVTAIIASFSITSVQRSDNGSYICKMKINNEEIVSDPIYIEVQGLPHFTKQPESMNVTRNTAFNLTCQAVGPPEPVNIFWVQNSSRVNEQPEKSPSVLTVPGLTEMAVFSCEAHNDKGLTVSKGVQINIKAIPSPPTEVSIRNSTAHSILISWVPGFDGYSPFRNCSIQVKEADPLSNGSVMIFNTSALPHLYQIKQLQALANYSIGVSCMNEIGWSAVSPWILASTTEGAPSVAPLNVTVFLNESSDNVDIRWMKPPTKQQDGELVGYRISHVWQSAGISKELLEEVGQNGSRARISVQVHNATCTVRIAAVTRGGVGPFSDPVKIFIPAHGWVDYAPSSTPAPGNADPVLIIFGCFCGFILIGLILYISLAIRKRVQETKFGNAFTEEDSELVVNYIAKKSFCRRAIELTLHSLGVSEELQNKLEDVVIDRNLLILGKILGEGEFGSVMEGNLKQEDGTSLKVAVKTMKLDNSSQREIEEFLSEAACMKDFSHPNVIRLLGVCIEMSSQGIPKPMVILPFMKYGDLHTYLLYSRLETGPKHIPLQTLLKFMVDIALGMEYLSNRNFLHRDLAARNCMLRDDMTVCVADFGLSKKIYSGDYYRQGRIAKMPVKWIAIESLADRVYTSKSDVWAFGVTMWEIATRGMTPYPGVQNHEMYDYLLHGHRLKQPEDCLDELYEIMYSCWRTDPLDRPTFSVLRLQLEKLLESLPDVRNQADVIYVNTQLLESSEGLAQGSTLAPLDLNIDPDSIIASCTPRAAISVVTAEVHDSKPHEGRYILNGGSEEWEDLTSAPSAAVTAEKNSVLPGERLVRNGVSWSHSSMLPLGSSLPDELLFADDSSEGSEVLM

One may read the IC50 as the concentration needed to halve the response being measured. On to `CCn1cc(C(=O)Nc2ccc(Oc3ccnc4cc(OC)cnc34)c(F)c2)c(=O)c(-c2ccc(F)cc2)c1C` [Compound 164, 1-Ethyl-N-[3-fluoro-4-[(7-methoxy-1,5-naphthyridin-4-yl)oxy]phenyl]-5-(4-fluorophenyl)-6-methyl-4-oxopyridine-3-carboxamide], for which the IC50 in assay [1] (setting [5]) was less than 100 nM; in assay [2] it was less than 100 nM; in assay [3] (setting [6]), less than 100 nM; in assay [4] (setting [7]), greater than 300 nM.
In the case of `Cc1ncc(C(=O)Nc2ccc(Oc3ccnc4cc(C(C)C)cnc34)c(F)c2)c(O)c1-c1ccc(F)cc1` [Compound 596, 5-(4-Fluorophenyl)-N-[3-fluoro-4-[(7-propan-2-yl-1,5-naphthyridin-4-yl)oxy]phenyl]-4-hydroxy-6-methylpyridine-3-carboxamide], the IC50 in assay [1] (protocol of Example D-2) is less than 100 nM; in assay [2], less than 100 nM; in assay [3] (protocol of Example C-2), less than 100 nM; in assay [4] (protocol of Example B-2) it was greater than 300 nM.
Turning to `Cc1nc2c(Oc3ccc(NC(=O)c4cnc(C)c(-c5ccc(F)cc5)c4O)cc3)ccnc2cc1-c1cnn(C(F)F)c1` [Compound 617, N-[4-[[7-[1-(Difluoromethyl)pyrazol-4-yl]-6-methyl-1,5-naphthyridin-4-yl]oxy]phenyl]-5-(4-fluorophenyl)-4-hydroxy-6-methylpyridine-3-carboxamide hydrochloride], the IC50 was less than 100 nM in assay [1] (protocol of Example D-2), less than 100 nM in assay [2], less than 100 nM in assay [3] (protocol of Example C-2) and 100 to 300 nM in assay [4] (protocol of Example B-2).
Take `CCc1nc2c(Oc3ccc(NC(=O)c4cn(C(C)C)c(C)c(-c5ccc(F)cc5)c4=O)cc3F)ccnc2cc1OC` [Compound 588, N-[4-[(6-Ethyl-7-methoxy-1,5-naphthyridin-4-yl)oxy]-3-fluorophenyl]-5-(4-fluorophenyl)-6-methyl-4-oxo-1-propan-2-ylpyridine-3-carboxamide]: the half-maximal inhibitory concentration (IC50) was less than 100 nM in assay [1] (protocol of Example D-2), less than 100 nM in assay [2], less than 100 nM in assay [3] (protocol of Example C-2) and greater than 300 nM in assay [4] (protocol of Example B-2).
With `Cc1ncc(C(=O)Nc2ccc(Oc3ccnc4cnc(Cl)cc34)c(F)c2)c(O)c1-c1ccc(F)cc1` [Compound 641, N-[4-[(6-chloro-1,7-naphthyridin-4-yl)oxy]-3-fluorophenyl]-5-(4-fluorophenyl)-4-hydroxy-6-methylpyridine-3-carboxamide], the IC50 is 100 to 300 nM in assay [1] (protocol of Example D-2), less than 100 nM in assay [2], less than 100 nM in assay [3] (protocol of Example C-2) and greater than 300 nM in assay [4] (protocol of Example B-2).
For the compound `COc1nc2c(Oc3ccc(NC(=O)c4cnc(C)c(-c5ccc(F)cc5)c4O)cc3F)ccnc2cc1Br` [Compound 130, N-[4-[(7-Bromo-6-methoxy-1,5-naphthyridin-4-yl)oxy]-3-fluorophenyl]-5-(4-fluorophenyl)-4-hydroxy-6-methylpyridine-3-carboxamide], the 50% inhibitory concentration (IC50) in assay [1] (setting [5]), in assay [2], in assay [3] (setting [6]) and in assay [4] (setting [7]) was less than 100 nM in each case.
For the compound `COc1cnc2c(Oc3ccc(NC(=O)c4cnc(C)c(-c5ccc(F)cc5C)c4O)cc3F)ccnc2c1` [Compound 175, N-[3-Fluoro-4-[(7-methoxy-1,5-naphthyridin-4-yl)oxy]phenyl]-5-(4-fluoro-2-methylphenyl)-4-hydroxy-6-methylpyridine-3-carboxamide], the IC50 was less than 100 nM in assay [1] (setting [5]), less than 100 nM in assay [2], less than 100 nM in assay [3] (setting [6]) and 100 to 300 nM in assay [4] (setting [7]).
Turning to `Cc1ncc(C(=O)Nc2ccc(Oc3ccnc4cc(C(C)C)cnc34)cc2)c(O)c1-c1ccc(F)cc1` [Compound 594, 5-(4-Fluorophenyl)-4-hydroxy-6-methyl-N-[4-[(7-propan-2-yl-1,5-naphthyridin-4-yl)oxy]phenyl]pyridine-3-carboxamide], the IC50 in assay [1] (protocol of Example D-2) was less than 100 nM; in assay [2], less than 100 nM; in assay [3] (protocol of Example C-2), less than 100 nM; in assay [4] (protocol of Example B-2), greater than 300 nM.
